Test results as given in PubChem BioAssay AID192 (DTP/NCI, 2004).
Values joined by “and” are separate entries in the source; they are usually repeats but may differ in a detail not shown here. Equal values may be shown once. Toxic doses and inconclusive results are not listed.

Test system: BDF1 mice, B16 melanoma ip, median survival T/C
Assay: NCI In Vivo Anticancer Drug Screen. Data for tumor model B16 Melanoma (intraperitoneal) in B6D2F1 (BDF1) mice
Conditions: endpoint: median survival time, higher = longer survival
Outline: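 In this screen, activity was judged from survival or tumor size in treated versus vehicle-treated tumor-bearing mice, reported as T/C.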

O=C1c2ccccc2C(=O)c2c(NCCNCCO)ccc(NCCNCCO)c21
T/C (dose: 0.25 mg/kg/injection, schedule: Q01DX009 (ip), vehicle: saline with Tween-80): 124 % of control | T/C (dose: 0.25 mg/kg/injection, schedule: Q01DX009 (ip), vehicle: saline): 110 % of control and 111 % of control | T/C (dose: 0.5 mg/kg/injection, schedule: Q01DX009 (ip), vehicle: saline with Tween-80): 118 % of control | T/C (dose: 0.5 mg/kg/injection, schedule: Q01DX009 (ip), vehicle: saline): 118 % of control | T/C (dose: 1.0 mg/kg/injection, schedule: Q01DX009 (ip), vehicle: other): 124 % of control | T/C (dose: 1.0 mg/kg/injection, schedule: Q01DX009 (ip), vehicle: saline with Tween-80): 152 % of control | T/C (dose: 1.0 mg/kg/injection, schedule: Q02DX009 (ip), vehicle: saline): 159 % of control | T/C (dose: 1.0 mg/kg/injection, schedule: Q03HX016 (ip), vehicle: acid diluted with saline): 161 % of control | T/C (dose: 1.0 mg/kg/injection, schedule: Q03HX024 (ip), vehicle: acid diluted with saline): 167 % of control | T/C (dose: 2.0 mg/kg/injection, schedule: Q01DX009 (ip), vehicle: acid diluted with saline): 183 % of control and 208 % of control | T/C (dose: 2.0 mg/kg/injection, schedule: Q01DX009 (ip), vehicle: saline with Tween-80): 175 % of control | T/C (dose: 2.0 mg/kg/injection, schedule: Q01DX009 (ip), vehicle: water): 168 % of control | T/C (dose: 2.0 mg/kg/injection, schedule: Q03HX008 (ip), vehicle: acid diluted with saline): 157 % of control | T/C (dose: 2.0 mg/kg/injection, schedule: Q03HX016 (ip), vehicle: acid diluted with saline): 202 % of control | T/C (dose: 2.0 mg/kg/injection, schedule: Q03HX024 (ip), vehicle: acid diluted with saline): 209 % of control | T/C (dose: 2.0 mg/kg/injection, schedule: Q03HX024 (ip), vehicle: saline): 123 % of control | T/C (dose: 4.0 mg/kg/injection, schedule: Q01DX005 (ip), vehicle: saline): 151 % of control | T/C (dose: 4.0 mg/kg/injection, schedule: Q01DX005 (iv), vehicle: saline): 106 % of control | T/C (dose: 4.0 mg/kg/injection, schedule: Q01DX009 (ip), vehicle: Klucel (hydroxypropylcellulose) (HPC)): 180 % of control | T/C (dose: 4.0 mg/kg/injection, schedule: Q01DX009 (ip), vehicle: saline with Tween-80): 154 % of control and 188 % of control | T/C (dose: 4.0 mg/kg/injection, schedule: Q01DX009 (ip), vehicle: water): 169 % of control and 172 % of control and 211 % of control | T/C (dose: 4.0 mg/kg/injection, schedule: Q01DX009 (sc), vehicle: acid diluted with saline): 121 % of control | T/C (dose: 4.0 mg/kg/injection, schedule: Q01DX009 (sc), vehicle: saline): 108 % of control | T/C (dose: 4.0 mg/kg/injection, schedule: Q02DX009 (ip), vehicle: saline): 170 % of control and 188 % of control | T/C (dose: 4.0 mg/kg/injection, schedule: Q03HX008 (ip), vehicle: acid diluted with saline): 206 % of control | T/C (dose: 4.0 mg/kg/injection, schedule: Q03HX016 (ip), vehicle: acid diluted with saline): 204 % of control | T/C (dose: 4.0 mg/kg/injection, schedule: Q03HX024 (ip), vehicle: saline): 207 % of control | T/C (dose: 8.0 mg/kg/injection, schedule: Q01DX005 (ip), vehicle: acid diluted with saline): 192 % of control | T/C (dose: 8.0 mg/kg/injection, schedule: Q01DX005 (iv), vehicle: saline): 106 % of control | T/C (dose: 8.0 mg/kg/injection, schedule: Q01DX009 (ip), vehicle: Klucel (hydroxypropylcellulose) (HPC)): 158 % of control | T/C (dose: 8.0 mg/kg/injection, schedule: Q01DX009 (ip), vehicle: other): 180 % of control | T/C (dose: 8.0 mg/kg/injection, schedule: Q01DX009 (ip), vehicle: saline with Tween-80): 159 % of control and 190 % of control | T/C (dose: 8.0 mg/kg/injection, schedule: Q01DX009 (oral), vehicle: acid diluted with saline): 98 % of control | T/C (dose: 8.0 mg/kg/injection, schedule: Q01DX009 (sc), vehicle: acid diluted with saline): 111 % of control | T/C (dose: 8.0 mg/kg/injection, schedule: Q01DX009 (sc), vehicle: saline): 123 % of control | T/C (dose: 8.0 mg/kg/injection, schedule: Q02DX009 (ip), vehicle: saline): 191 % of control | T/C (dose: 8.0 mg/kg/injection, schedule: Q03HX008 (ip), vehicle: acid diluted with saline): 192 % of control | T/C (dose: 8.0 mg/kg/injection, schedule: Q04DX003 (ip), vehicle: acid diluted with saline): 195 % of control | T/C (dose: 8.0 mg/kg/injection, schedule: Q08DX002 (ip), vehicle: acid diluted with saline): 178 % of control | T/C (dose: 8.0 mg/kg/injection, schedule: Q08DX002 (ip), vehicle: saline): 119 % of control | T/C (dose: 16.0 mg/kg/injection, schedule: Q01DX001 (ip), vehicle: acid diluted with saline): 156 % of control | T/C (dose: 16.0 mg/kg/injection, schedule: Q01DX001 (oral), vehicle: saline): 108 % of control | T/C (dose: 16.0 mg/kg/injection, schedule: Q01DX001 (sc), vehicle: acid diluted with saline): 102 % of control | T/C (dose: 16.0 mg/kg/injection, schedule: Q01DX005 (ip), vehicle: saline): 166 % of control | T/C (dose: 16.0 mg/kg/injection, schedule: Q01DX005 (iv), vehicle: saline): 116 % of control | T/C (dose: 16.0 mg/kg/injection, schedule: Q01DX009 (ip), vehicle: Klucel (hydroxypropylcellulose) (HPC)): 173 % of control | T/C (dose: 16.0 mg/kg/injection, schedule: Q01DX009 (ip), vehicle: saline with Tween-80): 186 % of control | T/C (dose: 16.0 mg/kg/injection, schedule: Q01DX009 (oral), vehicle: acid diluted with saline): 109 % of control | T/C (dose: 16.0 mg/kg/injection, schedule: Q01DX009 (oral), vehicle: saline): 101 % of control | T/C (dose: 16.0 mg/kg/injection, schedule: Q01DX009 (sc), vehicle: acid diluted with saline): 156 % of control | T/C (dose: 16.0 mg/kg/injection, schedule: Q02DX009 (ip), vehicle: saline): 180 % of control | T/C (dose: 16.0 mg/kg/injection, schedule: Q03HX008 (ip), vehicle: acid diluted with saline): 209 % of control | T/C (dose: 16.0 mg/kg/injection, schedule: Q03HX008 (ip), vehicle: saline): 117 % of control | T/C (dose: 16.0 mg/kg/injection, schedule: Q03HX016 (ip), vehicle: acid diluted with saline): 98 % of control | T/C (dose: 16.0 mg/kg/injection, schedule: Q04DX003 (ip), vehicle: acid diluted with saline): 204 % of control | T/C (dose: 16.0 mg/kg/injection, schedule: Q08DX002 (ip), vehicle: acid diluted with saline): 173 % of control | T/C (dose: 16.0 mg/kg/injection, schedule: Q08DX002 (ip), vehicle: saline): 112 % of control | T/C (dose: 18.75 mg/kg/injection, schedule: Q01DX001 (ip), vehicle: Klucel (hydroxypropylcellulose) (HPC)): 111 % of control | T/C (dose: 32.0 mg/kg/injection, schedule: Q01DX001 (ip), vehicle: acid diluted with saline): 157 % of control | T/C (dose: 32.0 mg/kg/injection, schedule: Q01DX001 (ip), vehicle: saline): 157 % of control | T/C (dose: 32.0 mg/kg/injection, schedule: Q01DX001 (oral), vehicle: saline): 106 % of control | T/C (dose: 32.0 mg/kg/injection, schedule: Q01DX001 (sc), vehicle: acid diluted with saline): 100 % of control | T/C (dose: 32.0 mg/kg/injection, schedule: Q01DX005 (ip), vehicle: saline): 181 % of control | T/C (dose: 32.0 mg/kg/injection, schedule: Q01DX005 (iv), vehicle: saline): 119 % of control | T/C (dose: 32.0 mg/kg/injection, schedule: Q01DX009 (oral), vehicle: acid diluted with saline): 113 % of control | T/C (dose: 32.0 mg/kg/injection, schedule: Q01DX009 (oral), vehicle: saline): 112 % of control | T/C (dose: 32.0 mg/kg/injection, schedule: Q01DX009 (sc), vehicle: acid diluted with saline): 114 % of control | T/C (dose: 32.0 mg/kg/injection, schedule: Q01DX009 (sc), vehicle: saline): 100 % of control | T/C (dose: 32.0 mg/kg/injection, schedule: Q02DX009 (ip), vehicle: saline): 196 % of control | T/C (dose: 32.0 mg/kg/injection, schedule: Q04DX003 (ip), vehicle: saline): 153 % of control | T/C (dose: 32.0 mg/kg/injection, schedule: Q08DX002 (ip), vehicle: acid diluted with saline): 196 % of control | T/C (dose: 50.0 mg/kg/injection, schedule: Q01DX001 (ip), vehicle: water): 151 % of control | T/C (dose: 64.0 mg/kg/injection, schedule: Q01DX001 (ip), vehicle: acid diluted with saline): 154 % of control | T/C (dose: 64.0 mg/kg/injection, schedule: Q01DX001 (ip), vehicle: saline): 151 % of control | T/C (dose: 64.0 mg/kg/injection, schedule: Q01DX001 (oral), vehicle: acid diluted with saline): 109 % of control | T/C (dose: 64.0 mg/kg/injection, schedule: Q01DX001 (oral), vehicle: saline): 116 % of control | T/C (dose: 64.0 mg/kg/injection, schedule: Q01DX001 (sc), vehicle: acid diluted with saline): 114 % of control | T/C (dose: 64.0 mg/kg/injection, schedule: Q01DX009 (oral), vehicle: acid diluted with saline): 100 % of control | T/C (dose: 64.0 mg/kg/injection, schedule: Q01DX009 (oral), vehicle: saline): 112 % of control | T/C (dose: 64.0 mg/kg/injection, schedule: Q02DX009 (ip), vehicle: saline): 89 % of control | T/C (dose: 64.0 mg/kg/injection, schedule: Q04DX003 (ip), vehicle: saline): 213 % of control | T/C (dose: 64.0 mg/kg/injection, schedule: Q08DX002 (ip), vehicle: acid diluted with saline): 178 % of control | T/C (dose: 64.0 mg/kg/injection, schedule: Q08DX002 (ip), vehicle: saline): 179 % of control | T/C (dose: 128.0 mg/kg/injection, schedule: Q01DX001 (oral), vehicle: acid diluted with saline): 105 % of control | T/C (dose: 128.0 mg/kg/injection, schedule: Q01DX001 (oral), vehicle: saline): 106 % of control | T/C (dose: 128.0 mg/kg/injection, schedule: Q01DX009 (oral), vehicle: acid diluted with saline): 115 % of control | T/C (dose: 128.0 mg/kg/injection, schedule: Q01DX009 (oral), vehicle: saline): 112 % of control | T/C (dose: 128.0 mg/kg/injection, schedule: Q08DX002 (ip), vehicle: saline): 106 % of control | T/C (dose: 256.0 mg/kg/injection, schedule: Q01DX001 (oral), vehicle: acid diluted with saline): 96 % of control | T/C (dose: 256.0 mg/kg/injection, schedule: Q01DX001 (oral), vehicle: saline): 116 % of control | T/C (dose: 512.0 mg/kg/injection, schedule: Q01DX001 (oral), vehicle: saline): 97 % of control
